Data taken from patent US20030157491A1, “HarA polypeptides and nucleic acids, and related methods and uses thereof” (priority 2002, published 2003).
In brackets after ≈: the same amount, converted by molar mass.

Tests used:
S. aureus RN4220 ("SA1") = assay: MIC by broth microdilution, wild-type sensitive S. aureus RN4220; format: cell-based, Staphylococcus aureus; settings: duplicate
Protocol: (§1) Quantitative assessment of resistance was performed by a broth microdilution method using cation-supplemented Mueller-Hinton broth containing antibiotics, the concentration of which varied in two-fold increments.
(§2) Preferably, the microdilution assay is performed using cation-adjusted Mueller-Hinton broth according to NCCLS (National Committee for Clinical Laboratory Standards) guideline M31 -A, Vol. 19, No. 11, “Performance standards for antimicrobial disk and dilution susceptibility tests for bacteria isolated from animals,” June 1999 (ISBN 1-56238-377-9), which is herein incorporated by reference.
(§3) To confirm the role of expZ in conferring resistance to hygromycin A analogues and other compounds, applicants examined the effect of B. subtilis and E. faecalis expZ expression and disruption on antibiotic resistance patterns. […] Also shown in Table 1 is the conferral of the “harA” phenotype on the normally drug-sensitive S. aureus RN4220 strain by transformation with a pMP plasmid containing B. subtilis harA.

BS1 (harA::cat) = assay: MIC by broth microdilution, B. subtilis JH642 harA disruption mutant; format: cell-based, Bacillus subtilis; settings: for MIC: BS1 (harA::cat), disruption mutant, broth microdilution, duplicate; for susceptibility of strain JH642 expZ::CAT: B. subtilis harA::CAT insertion mutant
Description: A B. subtilis strain expressing a harA::CAT insertion mutant was produced by single-crossover recombination using integrative plasmid pJPM1. Plasmid pJPM1 is a pSK^− derivative that carries the cat gene of S. aureus plasmid pC194 that confers chloramphenicol resistance in B. subtilis. […] However, if any DNA fragment providing a region of homology with the B. subtilis chromosome is inserted into this plasmid, it acquires the ability to transform B. subtilis competent cells to cat resistance at high frequency. The integration occurs via a Campbell-type (single crossover) recombination event that results in the duplication of the cloned region at either end of the vector. Reversal of the integration event leads to precise excision of the plasmid and restoration of gene structure on the chromosome. An internal fragment of the B. subtilis harA gene was excised using EcoRV and EcoRI and subcloned into compatible sites in pJPM1 creating plasmid pJPM1-expZ1. Plasmid pJPM1-expZ1 was used to transform the naturally competent B. subtilis strain JH642 (hygromycin-resistant) and transformants selected using chloramphenicol ([…]). A harA::CAT insertion mutant was confirmed by PCR and the strain was designated “JH642 expZ::CAT.” Strain JH642 expZ::CAT was hypersensitive to hygromycin analogues and other unrelated antibiotics including lankacidin and virginiamycin. Strain JH642 expZ::CAT was deposited with the ATCC on Sep. 26, 2000, and accorded Accession No. PTA-2480.
as §1, §2, §3

EF1 (harA::erm) = assay: MIC by broth microdilution, E. faecalis OG1X harA disruption mutant; format: cell-based, Enterococcus faecalis; settings: for decrease in the MIC when the harA gene is disrupted: E. faecalis OG1X; for MIC: EF1 (harA::erm), disruption mutant, broth microdilution, duplicate; for susceptibility of strain OG1X harA::erm: E. faecalis harA::erm knockout strain
Description: A PCR product corresponding to an internal segment of the E. faecalis harA gene was generated to obtain pVA891 -expZ by using the E. coli vector pVA891, which carries an ERM determinant that expresses in E. coli and E. faecalis. Briefly, internal harA primers were used (sense: 5′-[…]-3′-SEQ ID NO: 5); (antisense: 5′-[…]-3′-SEQ ID NO: 6) with E. faecalis genomic template DNA to generate a 665 bp PCR product. PCR-generated fragments were purified using the QIAquick PCR purification kit and cloned into the T-A cloning plasmid pGem-T Easy. The fragment was subsequently excised using EcoRI, gel purified using the S&S Elu-Quik kit, and cloned into the EcoRI site of pVA891. The ligation was transformed in E. coli DH5α with selection for erythromycin resistance (200 μg/mL); resulting in pVA891-expZ. The plasmid pVA891-expz was introduced by electroporation into E. faecalis OG1X (hygromycin resistant), where integrants occurring via homologous recombination were selected using erythromycin (20 μg/mL). The harA::erm knockout strain was confirmed by PCR and designated “OG1X harA::erm.” Strain OG1X harA::erm was hypersensitive to nonpolar hygromycin A analogues, lankacidin, virginiamycin and Synercid®. Revertants (i.e., resistant strains) could be obtained by growing for several generations in the absence of erythromycin and identified by screening for resistance to hygromycin A and sensitivity to erythromycin. Strain OG1X harA::erm was deposited with the ATCC on Sep. 26, 2000, and was accorded Accession No. PTA-2550.
as §1, §2, §3

[1] = tested on: B. subtilis JH642 trpC2 pheA1 ("BS1"); assay: MIC by broth microdilution, wild-type resistant B. subtilis JH642; format: cell-based, Bacillus subtilis; settings: duplicate
Protocol: as §1, §2, §3

[2] = tested on: E. faecalis OGX1 str gel ("EF1"); assay: MIC by broth microdilution, wild-type resistant E. faecalis OG1X; format: cell-based, Enterococcus faecalis; settings: duplicate
Protocol: as §1, §2, §3

SA1 (pMP20) = assay: MIC by broth microdilution, S. aureus RN4220 with vector only (pMP20); format: cell-based, Staphylococcus aureus
Protocol: (§4) To identify genes whose products might be important in establishing the intrinsic level of resistance to hygromycins, applicants screened a recombinant library of B. subtilis chromosomal DNA segments cloned into the E. coli-S. aureus shuttle vector pMP20 for S. aureus transformants with increased levels of resistance to a hygromycin analogue, as follows:
(§5) Chromosomal DNA was extracted from a 100 mL culture of B. subtilis strain JH642 grown in L both, partially digested with Sau3A and fractionated by electrophoresis in a 1% agarose gel. A fraction corresponding in size to 2-4 kb was purified and used for ligation with pMP20 that had been digested with BamHI and dephosphorylated with alkaline phosphatase. Ligated DNA was used to transform E. coli DH5α by electroporation, with selection for ampicillin resistance. Transformant colonies were pooled; the plasmid DNA mixture was extracted and used to transform S. aureus RN4220 by electroporation with selection on plates containing erythromycin (2 μg/mL) and 2 μg/mL of a nonpolar hygromycin A analogue, 3-(4-((2S,4S,5R)-5-(3-(2,4-dichloro-phenoxy)-1-methyl)-(1E)-propenyl)-4-hydroxy-tetrahydro-furan-2-yloxy)-3-hydroxy-phenyl)-2-methyl-N-((3aS,4R,5R,6S,7R,7aR)-4,6,7-trihydroxy-hexahydro-benzo(1,3)dioxol-5-yl)-(2E)-acrylamide, which is Example 68 of WO 00/32616 and referred to herein as “Compound 1”.
(§6) Vector-transformed S. aureus cells were sensitive to this level of Compound 1. Plasmid segregation and backcross experiments confirmed that plasmids harboring DNA segments from the B. subtilis chromosome conferred hygromycin A resistance in S. aureus. The MIC for Compound 1 was increased in these strains from ≦0.2 μg/mL for pMP20 transformants to 50 μg/mL for cells transformed with the recombinant plasmids.
as §1, §2, §3

SA1 (pMP20 Bs_harA+) = assay: MIC by broth microdilution, S. aureus RN4220 with vector carrying B. subtilis harA; format: cell-based, Staphylococcus aureus; settings: for increase in the MIC: sensitive S. aureus strain compared to same strain transformed with and expressing harA
Protocol: as §4, §5, §6, §1, §2, §3

[3] = SA1 (pMP20), wild-type, sensitive + vector only, broth microdilution, duplicate
[4] = SA1 (pMP20 Bs_harA+), sensitive + vector with B. subtilis harA, broth microdilution, duplicate

Row | Compound | MIC (S. aureus RN4220 ("SA1")) | MIC (BS1 (harA::cat)) | decrease in the MIC when the harA gene is disrupted (EF1 (harA::erm)) | MIC (EF1 (harA::erm)) | MIC [1] [µg/mL] | MIC [2] [µg/mL] | MIC (SA1 (pMP20); [3]) | MIC (SA1 (pMP20 Bs_harA+); [4]) [µg/mL] | sensitivity of vector-transformed S. aureus cells on selection plates (SA1 (pMP20); 2 μg/mL of compound on plates) | MIC (SA1 (pMP20); S. aureus pMP20 transformants (library selection, text)) [µg/mL] | MIC (SA1 (pMP20 Bs_harA+); S. aureus cells transformed with the recombinant plasmids carrying B. subtilis DNA segments) [µg/mL] | increase in the MIC (SA1 (pMP20 Bs_harA+)) | decrease in the MIC when the harA gene is disrupted (BS1 (harA::cat); B. subtilis JH642) | susceptibility of strain JH642 expZ::CAT (BS1 (harA::cat)) | susceptibility of strain OG1X harA::erm (EF1 (harA::erm))
1 | 5-deoxy-5[4-[(2,6-dideoxy-β-D-erythro-hexofuranos-5-ulos-1-yl)oxy]-3-hydroxyphenyl]-2-methyl-1-oxo-2-(E)-propenyl]amino]-1,2-O-methylene-D-neo-inositol, (E)-O-[(3-chlorophenyl)methyl]oxime [Compound 2] | ≦0.2 μg/mL | 0.39 µg/mL | greater than 4 fold | ≦0.2 μg/mL | 100 | 1.25 | ≦0.2 μg/mL | 50 | – | – | – | – | – | – | –
2 | C/C(=C\c1ccc(O[C@H]2C[C@H](O)[C@@H](/C(C)=C/COc3ccc(Cl)cc3Cl)O2)c(O)c1)C(=O)N[C@@H]1[C@H](O)[C@@H](O)[C@H]2OCO[C@H]2[C@@H]1O [Compound 1] | ≦0.2 μg/mL | ≦0.2 μg/mL | – | ≦0.2 μg/mL | 50 (≈ 74.8 µM) | 1.25 (≈ 1.87 µM) | ≦0.2 μg/mL | 100 | sensitive | ≤ 0.2 | 50 | ~500 fold | – | – | –
3 | C/C(=C\c1ccc(O[C@@H]2O[C@H](/C(C)=N/OCc3cccc(Cl)c3)[C@@H](O)[C@@H]2O)c(O)c1)C(=O)N[C@@H]1[C@H](O)[C@@H](O)[C@H]2OCO[C@H]2[C@@H]1O [Compound 3, 5-deoxy-5-[[3-[4-[(6-deoxy-β-D-arabino-hexofuranos-5-ulos-1-yl)oxy]-3-hydroxyphenyl]-2-methyl-1-oxo-2-(E)-propenyl]amino]-1,2-O-methylene-D-neo-inositol, (E)-O-[(3-chlorophenyl)methyl]oxime] | 0.39 µg/mL (≈ 0.599 µM) | 0.78 µg/mL | – | ≦0.2 μg/mL | >100 | 1.56 (≈ 2.4 µM) | 0.39 µg/mL | >100 | – | – | – | – | – | – | –
4 | CC(=O)[C@H]1O[C@@H](Oc2ccc(/C=C(\C)C(=O)N[C@@H]3[C@H](O)[C@@H](O)[C@H]4OCO[C@H]4[C@@H]3O)cc2O)[C@@H](O)[C@@H]1O [Hygromycin A] | 31.3 µg/mL (≈ 61.2 µM) | 15.6 µg/mL | – | 7.8 µg/mL | 250 (≈ 489 µM) | 62.5 (≈ 122 µM) | – | 250 | – | – | – | about 8 fold | about 16 fold | – | –
5 | CC1=C\[C@@H](O)CC(=O)Cc2nc(co2)C(=O)N2CCC=C2C(=O)O[C@H](C(C)C)[C@H](C)/C=C/C(=O)NC\C=C\1 [Virginiamycin A] | 0.78 µg/mL (≈ 1.48 µM) | 0.78 µg/mL | – | 1.56 µg/mL | 25 (≈ 47.6 µM) | 25 (≈ 47.6 µM) | 0.78 µg/mL | 50 | – | – | – | – | – | hypersensitive | hypersensitive
6 | Lankacidin | 3.13 µg/mL | 1.56 µg/mL | greater than 100 fold | 0.39 µg/mL | >100 | >100 | – | >100 | – | – | – | – | – | hypersensitive | hypersensitive
